Experimental findings from PMC7288138, “Development of Novel Analogs of the Monocarboxylate Transporter Ligand FACH and Biological Validation of One Potential Radiotracer for Positron Emission Tomography (PET) Imaging” (Molecules, 2020) are described below.

In the experiment the target is T1, MCT1 (monocarboxylate transporter 1) (Rattus norvegicus, UniProt P53987).
T1 construct: gene Slc16a1
T1 sequence (P53987 1-494): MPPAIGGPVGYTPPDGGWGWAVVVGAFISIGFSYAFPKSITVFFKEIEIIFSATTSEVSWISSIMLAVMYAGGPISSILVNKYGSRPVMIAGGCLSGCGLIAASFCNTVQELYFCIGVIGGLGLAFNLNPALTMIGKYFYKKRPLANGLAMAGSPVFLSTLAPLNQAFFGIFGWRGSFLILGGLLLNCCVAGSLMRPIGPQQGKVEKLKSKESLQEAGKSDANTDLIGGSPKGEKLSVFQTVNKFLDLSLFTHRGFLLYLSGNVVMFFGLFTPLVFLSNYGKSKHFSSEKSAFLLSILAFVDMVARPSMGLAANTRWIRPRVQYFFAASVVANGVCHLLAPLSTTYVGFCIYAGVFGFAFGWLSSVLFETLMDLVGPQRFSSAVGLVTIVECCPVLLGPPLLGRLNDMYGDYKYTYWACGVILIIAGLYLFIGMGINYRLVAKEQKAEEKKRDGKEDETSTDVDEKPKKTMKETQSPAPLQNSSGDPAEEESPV
Description: […]lactate uptake inhibition in RBE4 rat brain endothelial cells (only MCT1 isoform expressed). It counts as cell-based.

With `COc1cc(N(c2ccccc2)c2cccc(F)n2)ccc1/C=C(\C#N)C(=O)O` [compound 2, (E)-2-Cyano-3-(4-((6-fluoropyridin-2-yl)(phenyl)amino)-2-methoxyphenyl)acrylic Acid], the IC50 is 274 nM.

Compound `CCCN(c1ccc(/C=C(\C#N)C(=O)O)c(OC)c1)c1cccc(F)n1` [compound 1, (E)-2-Cyano-3-(4-((6-fluoropyridin-2-yl)(propyl)amino)-2-methoxyphenyl)acrylic Acid] yielded an IC50 of 118 nM.

A word on the IC50: it is the concentration that gives 50% inhibition. A low value points to higher potency.
